Earlier results as cited in US11191849B2, “Compositions and methods for delivering messenger RNA” (ARBUTUS BIOPHARMA CORPORATION, priority 2016, dated 2021).

Compound | log P
CC(C)C(=O)OCC(=O)[C@@]12O[C@H](C3CCCCC3)O[C@@H]1C[C@H]1[C@@H]3CCC4=CC(=O)C=C[C@]4(C)[C@H]3[C@@H](O)C[C@@]12C [Ciclesonide] | ~5.3
CCC(=O)O[C@]1(C(=O)CCl)[C@@H](C)C[C@H]2[C@@H]3CCC4=CC(=O)C=C[C@]4(C)[C@@]3(F)[C@@H](O)C[C@@]21C [Clobetasol, clobetasol-17-propionate] | ~3.5
CCCCCCCCCCCCCCCC(=O)OCC(=O)[C@@]1(O)[C@H](C)C[C@H]2[C@@H]3CCC4=CC(=O)C=C[C@]4(C)[C@@]3(F)[C@@H](O)C[C@@]21C [Dex-P, Dexamethasone 21-palmitate] | ~9
